# Patent US20260309717A1, “PROXIMITY INDUCING SYSTEM AND USES THEREOF” (SORBONNE UNIVERSITE, priority 2022, published 2026)
# What was measured:
# [1] = molecular target: T1, mCherry-^FIREtag / Lyn11-ECFP-^FIREmate (Halorhodospira halophila, UniProt P16113, A30V/C69G/D97P/F96I, form not given/G21E/G25R/K17N/M100R/M109L/Q41L/Q99S/S72T/T101G/V83A/Y94W/Y98T); experiment: Recruitment of cytoplasmic protein to the plasma membrane, HEK293 cells; format: cell-based; settings: 10 μM
# T1 construct: Lyn11-ECFP-FIREmate and mCherry-FIREtag in HEK293 cells
# T1 sequence (P16113 1-114 A30V/C69G/D97P/F96I/G21E/G25R/K17N/M100R/M109L/Q41L/Q99S/S72T/T101G/V83A/Y94W/Y98T): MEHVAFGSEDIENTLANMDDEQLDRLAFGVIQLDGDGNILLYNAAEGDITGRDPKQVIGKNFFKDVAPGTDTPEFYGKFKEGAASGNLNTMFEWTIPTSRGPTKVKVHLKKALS
# Experimental: FIGS. 8A-E illustrate the recruitment of cytoplasmic proteins to the plasma membrane with the proximity inducing system described herein. FIG. 8A is a representation of the experimental design wherein HEK293 cells co-expressing mCherry-^FIREtag and Lyn11-ECFP-^FIREmate were treated with 10 μM of match (either HBR-2,5DM or HMBR), and imaged by time-lapse confocal microscopy. FIGS. 8B-C are graphs showing the temporal evolution of the FIRE signal detected upon addition at 0 min of HBR-2,5DM (match1-8B) or HMBR (match2-8C). Data represents the mean values±SD of 22 cells from n=3 independent experiments (8B, D), or of 30 cells from n=3 independent experiments (8C, E). FIGS. 8D-E are sets of representative confocal micrographs of cells before (0 min) and after (5 min) addition of HBR-2,5DM (match1-8D) or HMBR (match2-8E) (mCherry: ex/em 561/606-675 nm; FIRE: ex/em 488/508-570 nm; ECFP: ex/em 445/455-499 nm). […] Scale bars are 20 μm.
# (§1) The confocal micrographs were acquired on a Zeiss LSM 980 Laser Scanning Microscope equipped with a plan apochromat 63x/1.4 NA oil immersion objective. ZEN software was used to collect the data. The images were analyzed using Icy (2.4.0.0) and Fiji (Image J). In short, to track fluorescence signal in a specific organelle, a ROI (region of interest) was determined by masking the signal in the ECFP (Enhanced Cyan Fluorescent Protein) channel with the plug-in HK-means with the following parameters: intensity class equals 100, minimum object size (pixels or px) equals 500, maximum object size (px) equals 1500-3000. The signal intensity of the ROI was tracked over time for each channel by using plug-in Active Contours. The background signal was subtracted. Data were processed using GraphPad Prism v9.3.0.
# To further evaluate the scope of the proximity inducing system described herein and show its versatility, ^FIREmate was anchored at the membrane of various organelles or cellular structures so that ^FIREmate faced the cytosol. ^FIREmate was thus fused: • to the N-terminus of the transmembrane domain (amino acid residues at positions 3131-3259) of Giantin for location at the cis-medial rims of the Golgi apparatus (FIG. 6A), • to the N-terminus of the transmembrane domain (amino acid residues at positions 100-134) of the cytochrome b5 (Cb5) for location at the endoplasmic reticulum membrane (FIG. 7A), and • to the C-terminus of the Lyn11 inner membrane targeting sequence for location at the plasma membrane (FIG. 8A).
# For each construct, an ECFP was inserted between ^FIREmate and the other protein domain/sequence to monitor the localization of the resulting fusion protein (blue fluorescence). Each fusion protein was co-expressed in mammalian cells (HeLa cells or HEK293 cells as indicated) together with mCherry-^FIREtag (red fluorescence). […]
# [2] = molecular target: T2, NLS-mCherry-^FIREmate / NES-ECFP-^FIREtag (Halorhodospira halophila, UniProt P16113, A30V/C69G/D97P/F96I, form not given/G21E/G25R/K17N/M100R/M109L/Q41L/Q99S/S72T/T101G/V83A/Y94W/Y98T); experiment: Nuclear export of proteins (nucleocytoplasmic trafficking), confocal microscopy, HeLa cells; format: cell-based; settings: 10 μM, 4 min
# T2 construct: NLS-mCherry-FIREmate and NES-ECFP-FIREtag in HeLa cells
# T2 sequence (P16113 1-114 A30V/C69G/D97P/F96I/G21E/G25R/K17N/M100R/M109L/Q41L/Q99S/S72T/T101G/V83A/Y94W/Y98T): T1 sequence (P16113 1-114 A30V/C69G/D97P/F96I/G21E/G25R/K17N/M100R/M109L/Q41L/Q99S/S72T/T101G/V83A/Y94W/Y98T)
# Experimental: FIGS. 13A-D illustrate the nuclear export of proteins mediated by the proximity inducing system described herein. FIG. 13A is a representation of the experimental design wherein HeLa cell co-expressing NLS-mCherry-FIR_^FIREmate and NES-ECFP-^FIREtag were treated with 10 μM of match (i.e., HBR-2,5DM) and imaged by time-lapse confocal microscopy. FIG. 13B is a graph showing the temporal evolution of the ratio nucleus-to-cytoplasm mCherry fluorescence intensities of n=5 cells from 2 independent experiments. FIG. 13C is a graph showing the temporal evolution of the FIRE signal detected upon addition of HBR-2,5DM at 0 min of n=5 cells from 2 independent experiments. […]
# as §1, with “ZEN software was used to collect the data.” left out, “The signal intensity of the ROI was tracked over time for each channel by using plug-in Active Contours. The background signal was subtracted. Data were processed using GraphPad Prism v9.3.0.” left out
smiles,measurement,setting,value
"Cc1cc(/C=C2\SC(=S)NC2=O)c(C)cc1O [HBR-2,5DM, (Z)-5-(4-hydroxy-2,5-dimethylbenzylidene)-2-thioxo-1,3-thiazolidin-4-one]",FIRE signal at the plasma membrane,[1],simultaneous appearance of green fluorescence
same,translocation of mCherry-^FIREtag to the plasma membrane,[1],rapid translocation of mCherry-^FIREtag to the organelle
same,FIRE signal in the cytoplasm,[2],strong cytoplasmic green fluorescence
same,cytoplasmic localization of the formed protein complex (nuclear export of NLS-mCherry-^FIREmate),[2],efficient cytoplasmic localization of the formed protein complex
